Key:
[1] = target: T1, human FAAH (Fatty Acid Amide Hydrolase) (Homo sapiens (Human), UniProt O00519); assay: FAAH inhibition, human FAAH CHO whole cell format; format: cell-based
[2] = target: T1, human FAAH (Fatty Acid Amide Hydrolase); assay: FAAH inhibition, human FAAH CHO cell lysate (AAMCA fluorescence); format: biochemical
Text: To assist in assay development stable cell lines for human, murine and rat full length FAAH were developed. […] The full length FAAH was subcloned into the mammalian expression vector, pcDEF.neo, using XbaI and EcoRI restriction sites and used for stable cell line generation.
The full length murine FAAH was subcloned into the mammalian expression vector, pcDEFneo using either EcoRI (murine) or KpnI and EcoRI (rat) restriction sites. Chinese hamster ovary cells (CHO) were transfected following manufacturers protocol (AMAXA). Forty eight hours post transfection, cells were trypsinized and transferred to 96 well plates in Iscove's DMEM media supplemented with 2 mM Glutamine, 10% fetal calf serum, 1 mg/ml geneticin and HT Supplement (0.1 mM sodium hypoxanthine, 0.016 mM thymidine) in order to isolate single clones. […] Following removal of tissue culture media cells were dislodged following addition of Cellstripper (Mediatech, Inc. Manassas, Va.) and transferred to 96 well black clear bottom assay plate, centrifuged at 1,000 rpm for 3 mins and media removed and replaced with assay buffer (50 mM Tris pH8.0, 1 mM EDTA, 0.1% fatty acid free BSA). The reaction was initiated by addition of fluorescent substrate, AMC Arachidonoyl Amide (Cayman Chemical, Ann Arbor, Mich.) to 1 μM and reaction allowed to proceed for 2 hours at room temperature. Release of fluorescence was monitored in a CytoFluor Multiplate Reader.
CHO cells expressing FAAH were used to prepare either crude cell lysate or microsome fractions. To harvest cells, tissue culture media was decanted, the monolayer washed three times with Ca^++Mg^++ free PBS and cells recovered after 15 min in enzyme free dissociation media (Millipore Corp, Billerica, Mass.). Cells were collected by centrifuging at 2000 rpm for 15 min, and the cell pellet re-suspended with 50 mM HEPES (pH 7.4) containing 1 mM EDTA and the protease inhibitors aprotinin (1 mg/ml) and leupeptin (100 μM). The suspension was sonicated at 4° C. and the cell lysate recovered after centrifuging at 12,000×g (14,600 rpm, SS34 rotor) for 20 min at 4° C. to form a crude pellet of cell debris, nuclei, peroxisomes, lysosomes, and mitochondria; the supernatant or cell lysate was used for FAAH enzyme assay. In some eases, microsomes fractions enriched in FAAH were prepared by centrifuging the cell lysate further at 27,000 rpm (100,000×g) in SW28 rotor for 50 minutes at 4° C. The pellet containing FAAH-enriched microsomes was re-suspend in 50 mM HEPES, (pH 7.4) 1 mM EDTA, and any remaining DNA sheared by passage of material through a 23 gauge needle and aliquots of enzyme were store at −80° C. prior to use.
Assays are performed on either cell lysate or microsome fractions prepared as described or in whole cell format employing either the fluorescent substrate AAMCA (Cayman chemical, Ann Arbor, Mich.,) or ^3H-anandamide ([ETHANOLAMINE-1-3H] American Radiolabeled Chemicals; 1 mCi/ml). […] AAMCA substrate was used to achieve a final concentration of 1 μM and reaction allowed to proceed at room temperature for 1-3 hours. […] Whole cell assay is conducted with cells harvested after rinsing tissue culture flasks three times with Ca^++Mg^++ free PBS, incubating for 10 min in Enzyme free dissociation media and centrifuging for 5 minutes at 1,000 rpm in table top centrifuge. Cells are resuspended in assay buffer at desired cell number in (4×10^4 cells/assay in 96-well format; 1×10^4 cells/assay in 384-well format) and assayed as described.
Alternatively, assays are performed using anandamide [ethanolamine 1-^3H] (specific activity of 10 Ci/mmol) diluted with cold anandamide to achieve a final assay concentration of 1 μM anandamide (˜50,000 cpm). Enzyme (CHO cell lysate, brain or liver homogenate) is incubated in assay buffer (50 mM Phosphate, pH 8.0, 1 mM EDTA, 200 mM KCl, 0.2% glycerol, 0.1% fatty acid free BSA) with inhibitor at 25° C. for 30 minutes.

T1 sequence (O00519 whole entry): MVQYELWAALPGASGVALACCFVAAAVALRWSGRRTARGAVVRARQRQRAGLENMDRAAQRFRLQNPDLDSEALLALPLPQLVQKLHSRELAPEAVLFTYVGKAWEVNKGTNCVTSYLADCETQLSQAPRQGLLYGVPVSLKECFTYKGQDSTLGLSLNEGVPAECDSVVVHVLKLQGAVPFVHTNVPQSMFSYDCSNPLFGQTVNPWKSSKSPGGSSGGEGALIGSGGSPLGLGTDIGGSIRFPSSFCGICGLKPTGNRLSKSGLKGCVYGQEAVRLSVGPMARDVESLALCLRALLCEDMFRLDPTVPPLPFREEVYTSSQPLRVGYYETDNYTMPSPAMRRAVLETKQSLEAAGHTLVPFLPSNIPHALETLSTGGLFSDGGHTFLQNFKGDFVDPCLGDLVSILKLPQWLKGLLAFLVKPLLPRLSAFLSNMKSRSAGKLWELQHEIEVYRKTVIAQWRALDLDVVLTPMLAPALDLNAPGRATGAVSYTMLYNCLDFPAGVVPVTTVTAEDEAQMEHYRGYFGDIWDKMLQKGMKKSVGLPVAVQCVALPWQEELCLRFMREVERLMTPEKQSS

| IC50 [1] [nM] | IC50 [2] [nM] | Compound |
| --- | --- | --- |
| 847 | 320 | COC(=O)Cn1cc(-c2nc(C3CCOCC3)oc2Sc2ccc(Cl)cc2)cn1 [Example B5.13, methyl (4-{5-[(4-chlorophenyl)sulfanyl]-2-(tetrahydro-2H-pyran-4-yl)-1,3-oxazol-4-yl}-1H-pyrazol-1-yl)acetate] |
| 1050 | 255 | Clc1ccc(Sc2oc(C3CCOCC3)nc2-c2cnn(CC3OCCO3)c2)cc1 [Example B5.5, 5-[(4-chlorophenyl)sulfanyl]-4-[1-(1,3-dioxolan-2-ylmethyl)-1H-pyrazol-4-yl]-2-(tetrahydro-2H-pyran-4-yl)-1,3-oxazole] |
| 105 | 11.9 | C[S+]([O-])c1ccc(-c2nc(C3=CCCCC3)oc2Sc2ccc(Cl)cc2)cc1 (stereo not drawn) [Example C6.1, 5-[(4-chlorophenyl)sulfanyl]-2-(cyclohex-1-en-1-yl)-4-[4-(methylsulfinyl)phenyl]-1,3-oxazole] |

Source: US9193697B2, “Oxazole derivatives useful as modulators of FAAH” (MERCK SHARP & DOHME CORP., priority 2010, dated 2015)
